# Results as given in patent US20220110916A1, “Antioxidant and Use Thereof” (Bioradical Research Institute Corp., priority 2019, published 2022).
# Tested on: mesentery blood vessels of rats given lipopolysaccharide
# Test: LPS-induced mesenteric bleeding and leukocyte rolling in rats
# Format: in vivo, rat
# Excerpt: Administration of lipopolysaccharide to the mesentery vicinity blood vessels generates reactive oxygen species (ROS), causing vascular disorder and bleeding. Therefore, using the bleeding area as an indicator, it was examined whether the antioxidant of the present invention scavenges ROS in vivo.
# Eight-week old or older female rats (Wistar, body weight: approximately 200 g, n=1) were anesthetized by subcutaneous administration of urethane (1.75 g/kg body weight). The rats were then opened and fixed on a fixing table in such a manner that the mesentery of the rats was observable. After the fixing, the fixing table was placed under a microscope (Nikon OPTIphoto, produced by Nikon Corporation) so that the mesentery could be observed. In addition, a catheter was placed in the groin vein of the rat.
# 1 μg/ml of lipopolysaccharide ((LPS), produced by Sigma-Aldrich Co., Ltd.) derived from Pseudomonas aeruginosa (ATCC27316) was added dropwise once (20 μL, 20 ng/sight) and allowed to stand for 30 minutes. […] In the obtained photograph, the area of the region where bleeding occurred (bleeding area) was detected based on the number of pixels, and then the proportion of the area (bleeding area proportion) occupied per visual field was calculated. […]
smiles,measurement,setting,value
"CCN1N=C(C)/C(=C\C=C\c2c(C)nn(CC)c2O)C1=O (racemic) [BisEp-C3, 2,4-dihydro-4-[3-(1-ethyl-5-hydroxy-3-methyl-1H-pyrazol-4-yl)-2-propen-1-ylidene]-2-ethyl-5-methyl-3H-pyrazol-3-one]",bleeding area / bleeding area proportion,"rat mesentery, LPS 20 ng/sight, 1 mg/kg intravenously then 1 mg/kg per hour, up to 180 minutes, n=1, FIGS. 12 and 13",no bleeding was observed after the LPS administration
same,rolling phenomena of leukocytes in the blood vessel,"rat, after LPS instillation, compared to the control",a large number of rolling phenomena of leukocytes were observed
